The values that follow come from PubChem BioAssay AID602167 (The Scripps Research Institute Molecular Screening Center, 2012).

The source made the active and inactive calls. No rule for the calls is given here. Where only a bound is given, the exact number is not on record here.

This assay concerns the target transactivating tegument protein VP16 (Human herpesvirus 1), as a GAL4-VP16 activation-domain luciferase reporter. In words: GAL4-VP16 reporter repression curves – cell-based, luminescence, high throughput, SRC3 series, counter-screen for SRC3 inhibitor project, dose response (AID 602167). To be noted: VP16 transactivation luciferase reporter cells. In general terms: A counterscreen serves to expose hits that act by an unwanted route or on another target.

By IC50 is commonly meant the concentration needed to halve the response being measured. `Cc1ccc(-n2c(C)cc(C(=O)COc3cccnc3[N+](=O)[O-])c2C)cc1`: the IC50 result was “inactive”.

Turning to `Cc1nc2c(-c3ccc(Cl)cc3)cnn2c(N)c1-c1ccc(F)cc1`, the IC50 was 1.2 µM. Take `COc1cccc(CNc2ncnc3ccc(-c4c(C)noc4C)cc23)c1`: the IC50 was > 35.9 µM (inactive). On to `COC(CN(C(=O)CCl)C(C(=O)NC1CCCCC1)c1ccccc1C)OC` (centres undefined), for which the IC50 was 7.26 µM. The result for `CC[C@@]1(O)C(=O)OCc2c1cc1n(c2=O)Cc2cc3c(NC(=O)CN)cccc3nc2-1` reads > 35.9 µM (inactive); that for `CC(=O)/C(N=Nc1ccc2c(c1)OCCO2)=C(\C)O`, > 12 µM (inactive); that for `Cc1cc2nccc(-c3ccncc3)n2n1`, “inactive”. The result for `O=c1[nH]c2ccccc2n1C1CCN(C(c2cc3ccccc3o2)c2nnnn2Cc2ccccc2)CC1` (centres undefined) reads “inactive”; that for `C(=NNc1ccc2ccccc2n1)c1ccccn1`, “inactive”. `O=C(Nc1nc2cc3c(cc2s1)OCCO3)C1=COCCO1`: the half-maximal inhibitory concentration (IC50) is 7.78 µM. With `CC(=O)N1CCN(c2ncnc3ccccc23)CC1`, the IC50 entry was “inactive”. For `COc1ccc(Nc2ccncc2[N+](=O)[O-])cc1`, the IC50 is 6.45 µM. The result for `Cc1ccc(NC(=O)c2cc(C)n(-c3ccccc3)c2C)cc1` reads 0.223 µM; that for `O=c1[nH]c2ccccc2n1C1CCN(C(c2ccccc2)c2nnnn2Cc2ccccc2)CC1` (centres undefined), “inactive”; that for `C=CC[n+]1c(-c2ccc(C)cc2)csc1Nc1ccc(NC(C)=O)cc1`, > 35.9 µM (inactive). Turning to `CS(=O)c1nc(-c2ccc(Br)cc2)cc(-c2ccccc2)c1C#N` (centres undefined), the IC50 entry is “inactive”.

Consider `NC(=O)c1sc2nc3c(c(-c4ccco4)c2c1N)CCC3`, for which the IC50 was 3.1 µM. For `C=CCn1c(C)cc(C(=O)COc2ccc(C)nc2[N+](=O)[O-])c1C`, the IC50 result is “inactive”.

`NC(=S)N/N=C1\CCSc2ccc(Cl)cc21`: the IC50 result was “inactive”. For the compound `COc1cccc(/C=N/Nc2ccc([N+](=O)[O-])cn2)c1O`, the 50% inhibitory concentration (IC50) is 4.48 µM.

Regarding `Cc1sc2ncnc(N3CCC(C(=O)Nc4ccccc4C(C)(C)C)CC3)c2c1C`, the IC50 was 8.88 µM.

As to `Cc1cccc(Oc2sc(C(=O)c3ccccc3)c(N)c2C#N)c1`, the IC50 entry was “inactive”. `COc1ccc2[nH]c(=O)c(CN(CCN3CCCC3)C(=O)Nc3ccccc3Cl)cc2c1`: the IC50 entry is “inactive”. As to `Cc1nc([N+](=O)[O-])c(Sc2nc3ccccc3n2C)n1Cc1ccccc1`, the IC50 result was “inactive”. For `O=C(N/N=C(\c1ccccc1)c1ccccn1)c1ccccc1Cl`, the IC50 was 8.52 µM. Regarding `O=C(CCl)N(c1ccccc1)C1CCCCC1`, the IC50 result was “inactive”. Turning to `CN(Cc1cnc2nc(N)nc(N)c2n1)c1ccc(C(=O)NC(CCC(=O)O)C(=O)O)c2ccccc12` (centres undefined), the IC50 is > 35.9 µM (inactive). For `Cc1ccc2nc(C(F)(F)F)c(C#N)c(N)c2c1`, the IC50 result was “inactive”. Consider `O=c1[nH]cnc2c1nnn2C1OC(CO)C(O)C1O` (centres undefined), for which the IC50 result is “inactive”. For `COc1cccc(/C=N/Nc2cc(-n3nc(C)cc3-c3ccccc3)ncn2)c1O`, the IC50 is 6.45 µM. For the compound `CCn1c2ccccc2c2cnc(N=CN(C)C)c(C#N)c21`, the IC50 result was “inactive”. As to `CNC(=O)c1cccn(Cc2ccc(C(F)(F)F)cc2)c1=O`, the IC50 was > 35.8 µM (inactive). `CCOc1ccccc1-n1c(SCC(=O)Nc2ccccc2C(=O)O)nc2ccccc2c1=O`: the IC50 entry is “inactive”.

For `OCCN1CCN(C(=S)c2ccc(-c3ccccc3)cc2)CC1`, the IC50 was > 35.9 µM (inactive). Turning to `CCn1nc(/C=C/c2ccccc2)nc2c(=O)n(C)c(=O)nc1-2`, the 50% inhibitory concentration (IC50) was 5.14 µM. In the case of `O=c1[nH]c(O)c(N=Nc2ccc3c(c2)OCCO3)c(=O)[nH]1`, the IC50 entry is “inactive”. For `O=C(Nc1nc2ccccc2s1)C1c2ccccc2Oc2ccccc21`, the IC50 result was “inactive”.

`O=C(CCl)N1N=C(c2ccco2)CC1c1ccco1` (centres undefined): the IC50 is > 12 µM (inactive). With `COc1ccc(COC(=O)C2=C(C)NC(=O)NC2c2ccc(F)cc2)cc1` (centres undefined), the 50% inhibitory concentration (IC50) was 9.08 µM. Consider `CC(C)(C)c1ccc(Oc2ccc(N)cn2)cc1`, for which the IC50 result is “inactive”. For the compound `COc1cc2oc(=O)cc(-c3ccc(-c4ccc(CO)cc4)cc3)c2c(OC)c1OC`, the IC50 was 5.56 µM. Turning to `Cc1ccc(C(=O)O/N=C(\N)c2ccccn2)c(Cl)c1`, the IC50 entry was “inactive”. The result for `COc1cc(C2c3cc4c(cc3C(OC3OC5COC(c6cccs6)OC5C(O)C3O)C3COC(=O)C23)OCO4)cc(OC)c1O` (centres undefined) reads > 35.8 µM (inactive). As for `CCn1ccnc1CN(C)Cc1cn[nH]c1-c1ccc(OC)c(F)c1`, the IC50 was 7.96 µM. `Nc1ncnc(NCc2ccccc2)c1[N+](=O)[O-]`: the IC50 result is “inactive”. For the compound `CCOC(=O)C(C(C)=O)c1c(Br)c(O)c(O)c2c(C(=O)c3ccc(C)cc3)coc12` (centres undefined), the concentration for half-maximal inhibition (IC50) was 4.28 µM.

Regarding `O=c1[nH]c2ccccc2n1C1CCN(C(c2ccccc2)c2nnnn2-c2ccc3c(c2)OCCO3)CC1` (centres undefined), the IC50 entry was “inactive”. With `O=C(CC(Nc1ccc(Cl)cc1Cl)C(=O)O)c1ccccc1` (centres undefined), the half-inhibitory concentration (IC50) was 4.77 µM. Turning to `CCc1ccc(/C=C2\SC(=S)N(CCCC(=O)NCCCN3CCOCC3)C2=O)cc1`, the IC50 entry is “inactive”. `CN(C)S(=O)(=O)c1ccc(N2CCN(S(=O)(=O)c3ccc(F)cc3)CC2)c(Cl)c1`: the IC50 is 9.39 µM. On to `COc1ccc(C)cc1NS(=O)(=O)c1ccc(NC(=O)CN(c2cc([N+](=O)[O-])ccc2C)S(C)(=O)=O)cc1`, for which the IC50 result was “inactive”.

Consider `O=C(NCCCn1ccnc1)c1ccc(N2CCCCCC2)c([N+](=O)[O-])c1`, for which the IC50 result is “inactive”. As for `CC(C)(C)c1cc(C(=O)N/N=C/c2ccc(O)cc2)n(-c2ccccc2)n1`, the IC50 entry is “inactive”. Consider `CCCc1c(C)nc2ccccc2c1SCCC#N`, for which the IC50 entry is “inactive”. Turning to `CN(Cc1cnc2nc(N)nc(N)c2n1)c1ccc(C(=O)N[C@@H](CCC(=O)O)C(=O)O)cc1`, the IC50 was > 35.9 µM (inactive). Turning to `COc1ccc(-n2cnc3c(sc4nccc(N(C)C)c43)c2=O)cc1`, the IC50 entry is “inactive”. The result for `O=C(Nc1cccc(C(F)(F)F)c1)Nc1nnc([C@@H]2C[C@H](O)[C@@H](CO)O2)s1` reads 6.98 µM; that for `Nc1ccc(-c2cc3ccccc3oc2=O)cc1`, > 35.9 µM (inactive); that for `O=C(CCl)NC(Cc1ccccc1)c1ccccc1` (centres undefined), “inactive”. Consider `CCCC(=O)NC(c1ccc(Cl)cc1)c1ccc2cccnc2c1O` (centres undefined), for which the 50% inhibitory concentration (IC50) was 4.4 µM.

For the compound `COc1cc(/C=N/NC(N)=S)cc(Br)c1OCc1ccccc1F`, the IC50 was > 12 µM (inactive).

In the case of `CCOc1ccc(CC(=O)Nc2ccc(NC(=O)c3ccco3)cc2)cc1OCC`, the 50% inhibitory concentration (IC50) is 7.73 µM. Turning to `CC(C)(C)n1ncc2c(=O)n(CC(=O)OCc3ccccc3)cnc21`, the IC50 entry is “inactive”. As for `Oc1ccc(C=NNc2ccccn2)c(O)c1`, the IC50 result was “inactive”. With `c1cc2[nH]snc2c2nc(C3CC3)nc12`, the IC50 is 4.83 µM. On to `O=C(CNc1cccc([N+](=O)[O-])c1)N/N=C/c1ccc([N+](=O)[O-])o1`, for which the IC50 result is “inactive”. For `O=C(N/N=C\c1ccc([N+](=O)[O-])s1)c1cncc(Br)c1`, the IC50 is 6.45 µM.

`COCCNC(=O)c1cc(-c2ccccn2)nc2ccc(S(=O)(=O)N3CCC(C)CC3)cc12`: the IC50 is > 35.9 µM (inactive). Turning to `CCc1nc(N)nc(N)c1-c1ccc(Cl)c([N+](=O)[O-])c1`, the IC50 was > 35.8 µM (inactive).

With `COc1cc(/C=C2\CC(C(C)(C)C)C/C(=C\c3cc(OC)c(OC)c(OC)c3)C2=O)cc(OC)c1OC` (centres undefined), the half-inhibitory concentration (IC50) was 4.47 µM. Consider `CS(=O)(=O)c1ccc(Sc2nc3ccccc3s2)c([N+](=O)[O-])c1`, for which the IC50 is > 35.9 µM (inactive).

Regarding `NNC(=O)c1cc2ccccc2cc1O`, the IC50 result was “inactive”. For `O=C(COc1ccc(Cl)cc1)Nc1ccc(C(=O)NCc2cccnc2)cc1`, the IC50 entry is “inactive”. Take `COc1ccc(/C=C2\CC/C(=C\c3ccc(OC)c(OC)c3)C2=O)cc1OC`: the IC50 entry was “inactive”. The value for `COc1cccc(-c2nnc3sc(C4CCCCC4)nn23)c1` was 9.52 µM. In the case of `COC(=O)c1c(C)n(-c2ccc(OC)cc2)c2ccc(O)cc12`, the IC50 was 8.88 µM. As to `CC1(C)N=C(N)N=C(N)N1CCCCc1ccccc1`, the IC50 was 5.25 µM. Consider `Cc1ccc(N=Nc2ccc3ccccc3c2O)cc1`, for which the IC50 result was “inactive”. The value for `O=S(=O)(c1ccc(F)cc1)c1snnc1-c1ccccc1` was “inactive”; that for `O=C(Nc1ccccc1Oc1ccccc1)c1cc([N+](=O)[O-])ccc1Cl` was “inactive”; that for `COc1cc(/C=N/NC(=Nc2ccc(C)cc2)c2nc3ccccc3s2)ccc1O` was “inactive”. Take `CCc1ccc(-c2nc(CSCC(=O)NCc3ccco3)c(C)o2)cc1`: the IC50 result is “inactive”.

For `COc1cccc(F)c1C(C[N+](=O)[O-])c1c(N)n(C)c(=O)n(C)c1=O` (centres undefined), the IC50 was 5.01 µM. For `CN[C@H]1CCc2cc(OC)c(OC)c(OC)c2-c2ccc(OC)c(=O)cc21`, the IC50 was > 35.9 µM (inactive). The result for `CN(C)c1ccc(CNC(=O)CCNS(=O)(=O)c2cc(Br)cnc2N)cc1` reads 8.6 µM. With `Cc1cc(C(=O)COC(=O)C2=COCCO2)c(C)n1-c1ccccc1`, the IC50 was > 12 µM (inactive). The result for `O=C(Nc1ccc(OCC(=O)N2CCOCC2)cc1)c1cncc(Br)c1` reads “inactive”. Regarding `O=[N+]([O-])c1cccc2c1ccc1ncccc12`, the IC50 entry was “inactive”. `NC(=S)N/N=C1\CCOc2ccc(Cl)cc21`: the IC50 entry was “inactive”. The value for `O=C(NC(NC(=S)N1CCOCC1)C(Cl)(Cl)Cl)c1ccc(Cl)cc1` (centres undefined) was > 35.9 µM (inactive); that for `COc1cc2[nH]c3c(Cl)ncnc3c2cc1OC` was “inactive”.

Consider `O=C(COC(=O)c1ccc[nH]c1=O)Nc1ccc(N2CCCCC2)cc1`, for which the IC50 is > 35.9 µM (inactive). The result for `Fc1ccc(CSc2nnc(-c3ccncc3)o2)cc1` reads 3.81 µM; that for `COc1ccc(C(C(=O)NC2CCCCC2)N(C(=O)CCl)c2ccc(OC)cc2)cc1` (centres undefined), 6.59 µM.
